Laboratory results published in US6573246B1, “Modified ether glyceroglycolipids” (The Liposome Company, Inc., priority 1995, dated 2003).
Like-named read-outs stand apart in the source and are kept apart here. One block for each compound: values may come before it.

Legend:
[1] = system: MCF-7 (breast adenocarcinoma) cells; assay: growth inhibition of MCF-7 cells in culture; format: cell-based, human
Experimental: (§1) Human epithelial cancer cell lines were grown from frozen stocks originally obtained from the ATCC, in media commonly used for growing these cells in culture. For example, A549 cells (non-small cell lung adenocarcinoma) were cultured in Ham's F-12 medium, T84 cells (colon carcinoma) were cultured in a 1:1 mixture of F-12 and DMEM while MCF-7 (breast adenocarcinoma) and A427 (large cell lung carcinoma) cells were cultured in DMEM. The media were supplemented with 10% fetal bovine serum, penicillin (50 U/ml), streptomycin (50 micogram/ml) and fungizone (0.5 microgram/ml). OVCAR-3 cells (ovarian adenocarcinoma) were cultured in RPMI 1640 medium supplemented with 20% FBS and 10 microgram/ml insulin.
(§2) Cells were subcultured into 24-well plates and the cell number was monitored daily. When the cells were in log phase, the media was replaced with one containing the required drug concentration, and the cells were incubated for 72 h. The increase in cell numbers relative to control wells (without any drug) was determined after the incubation. Stock solutions of the drugs ([…]) were prepared in ethanol and stored at −20 deg. C. Etherlipid solutions (30 micromolar) in the appropriate media were prepared fresh on the day of the experiment and serially diluted to give the required concentrations. The final concentration of ethanol in all wells was 0.1% (v/v).
(§3) Gl50 values are given as the mean ± standard deviation; the Gl50 value from each experiment “n” was generated from three individual wells on two separate plates (six total wells); n=1 for compounds 3-6; n=2 for most cell lines treated with compound 2 ^an=3; ^bn=2; ^cn=6; ^dn=8.

[2] = system: A549 cells (non-small cell lung adenocarcinoma); assay: growth inhibition of A549 cells in culture; format: cell-based, human
Experimental: as §1, §2, §3

[3] = system: MCF-7/Adr (adriamycin-resistant) cells; assay: growth inhibition of MCF7/adr cells in culture; format: cell-based, human; settings: mean ± standard deviation, read-out: Gl50 (concentration of lipid required to inhibit the growth of fifty percent of the cells in culture)
Experimental: (§4) The Gl50 values for edelfosine (1), 2′-deoxy-β-D-arabinopyranosyl (2), 2′-deoxy-α-D-arabinopyranosyl (3), 2-O-methyl-β-D-glucopyranosyl (4), 2′-O-methyl-β-D-mannopyranosyl (5) and α-D-mannopyransoyl (6) on A-549, MCF-7, Lewis Lung, MCF-7/Adr (adriamycin-resistant), P388, P-388/Adr, L1210 and L1210/vmdr cells were determined and are set forth below (see Table 4) as the concentration (micromolar) of lipid required to inhibit the growth of fifty percent of the cells in culture.
as §3

[4] = system: HT29 cells; assay: growth inhibition of HT29 cells in culture; format: cell-based; settings: mean ± standard deviation, read-out: Gl50 (concentration of lipid required to inhibit the growth of fifty percent of the cells in culture)
[5] = system: L1210 cells; assay: growth inhibition of L1210 cells in culture; format: cell-based; settings: mean ± standard deviation, read-out: Gl50 (concentration of lipid required to inhibit the growth of fifty percent of the cells in culture)
Experimental: as §4, §3

[6] = system: L1210/vmdr cells; assay: growth inhibition of L1210/vmdr cells in culture; format: cell-based; settings: mean ± standard deviation, read-out: Gl50 (concentration of lipid required to inhibit the growth of fifty percent of the cells in culture)
Experimental: as §4, §3

[7] = system: T84 cells (colon carcinoma); assay: growth inhibition of T84 cells in culture; format: cell-based, human
Experimental: as §1, §2

[8] = system: A427 (large cell lung carcinoma) cells; assay: growth inhibition of A427 cells in culture; format: cell-based, human
Experimental: as §1, §2

[9] = system: OVCAR-3 cells (ovarian adenocarcinoma); assay: growth inhibition of OVCAR-3 cells in culture; format: cell-based, human; settings: for growth: increase in cell numbers relative to control wells (control = 100): OVCAR-3, 72 h
Experimental: as §1, §2

[10] = 72 h, 10% FBS-supplemented medium, read-out: Gl50 (concentration that inhibited cell growth by 50% in comparison to control cultures)
[11] = lipid concentration 10 μM, 72 h
[12] = lipid concentration 12.5 μM, 72 h
[13] = lipid concentration 15 μM, 72 h
[14] = lipid concentration 20 μM, 72 h
[15] = lipid concentration 6.5 μM, 72 h
[16] = lipid concentration 8.0 μM, 72 h

IC50 ([1]; MCF7, mean ± standard deviation, read-out: Gl50 (concentration of lipid required to inhibit the growth of fifty percent of the cells in culture)): 21.7 ± 0.57 µM | IC50 ([2]; mean ± standard deviation, read-out: Gl50 (concentration of lipid required to inhibit the growth of fifty percent of the cells in culture)): 18.1 ± 0.14 µM | IC50 [3]: 23.3 ± 0.71 µM | IC50 [4]: 23.2 ± 0.85 µM | IC50 [5]: 16.2 ± 0.99 µM | IC50 [6]: 18.9 µM
Compound: CCCCCCCCCCCCCCCCOC[C@H](CO[C@H]1O[C@H](CO)[C@@H](O)[C@H](O)[C@@H]1O)OC [compound 6, 1-O-Hexadecyl-2-O-methyl-3-O-(α-D-mannopyransoyl)-sn-glycerol]

IC50 ([1]; MCF-7, 72 h, 10% FBS-supplemented medium, read-out: Gl50 (concentration that inhibited cell growth by 50% in comparison to control cultures)): 6.5 µM | IC50 [7, 10]: 12.2 µM | IC50 [2, 10]: 8.3 µM | IC50 [8, 10]: 7 µM | IC50 ([9]; OVCAR-3 ovarian cancer cell line, read-out: Gl50 (the source's name)): 12 µM
Compound: CCCCCCCCCCCCCCCCOC[C@H](CO[C@@H]1O[C@H](CO)[C@@H](O)[C@H](O)[C@H]1N)OC [A, 1-O-hexadecyl-2-O-methyl-3-O-(2′-amino-2′-deoxy-β-D-glucopyranosyl)-sn-glycerol]
concentration cytotoxic to the cells ([1]; MCF-7, 10% FBS-supplemented medium): 16 µM | proliferation: increase in cell numbers relative to control wells (control = 100) ([1]; MCF-7, lipid concentration 5 μM, 72 h): 60.60 ± 7.14 | proliferation: increase in cell numbers relative to control wells (control = 100) ([1]; MCF-7, lipid concentration 6.5 μM, 72 h): 44.05 ± 11.70 | proliferation: increase in cell numbers relative to control wells (control = 100) ([1]; MCF-7, lipid concentration 8.0 μM, 72 h): 31.46 ± 5.56 | proliferation: increase in cell numbers relative to control wells (control = 100) ([1]; MCF-7, lipid concentration 10 μM, 72 h): 14.42 ± 8.39 | proliferation: increase in cell numbers relative to control wells (control = 100) ([1]; MCF-7, lipid concentration 12.5 μM, 72 h): 3.90 ± 5.75 | proliferation: increase in cell numbers relative to control wells (control = 100) ([1]; MCF-7, lipid concentration 15 μM, 72 h): 0 | proliferation: increase in cell numbers relative to control wells (control = 100) ([1]; MCF-7, lipid concentration 20 μM, 72 h): 0 | concentration cytotoxic to the cells ([7]; 10% FBS-supplemented medium): 20 µM | proliferation: increase in cell numbers relative to control wells (control = 100) ([7]; lipid concentration 5 μM, 72 h): 89.71 ± 12.72 | proliferation: increase in cell numbers relative to control wells (control = 100) ([7]; lipid concentration 7.5 μM, 72 h): 75.16 ± 10.79 | proliferation: increase in cell numbers relative to control wells (control = 100) [7, 11]: 64.89 ± 11.56 | proliferation: increase in cell numbers relative to control wells (control = 100) [7, 12]: 39.59 ± 9.50 | proliferation: increase in cell numbers relative to control wells (control = 100) [7, 13]: 15.06 ± 7.23 | proliferation: increase in cell numbers relative to control wells (control = 100) [7, 14]: 0 | concentration cytotoxic to the cells ([2]; 10% FBS-supplemented medium): 10.5 µM | proliferation: increase in cell numbers relative to control wells (control = 100) ([2]; lipid concentration 5 μM, 72 h): 82.28 ± 4.66 | proliferation: increase in cell numbers relative to control wells (control = 100) [2, 15]: 67.39 ± 6.18 | proliferation: increase in cell numbers relative to control wells (control = 100) [2, 16]: 45.17 ± 12.06 | proliferation: increase in cell numbers relative to control wells (control = 100) [2, 11]: 0 | proliferation: increase in cell numbers relative to control wells (control = 100) [2, 12]: 0 | proliferation: increase in cell numbers relative to control wells (control = 100) [2, 13]: 0 | proliferation: increase in cell numbers relative to control wells (control = 100) [2, 14]: 0 | concentration cytotoxic to the cells ([8]; 10% FBS-supplemented medium): 10.5 µM | proliferation: increase in cell numbers relative to control wells (control = 100) ([8]; lipid concentration 5 μM, 72 h): 68.98 ± 9.25 | proliferation: increase in cell numbers relative to control wells (control = 100) [8, 15]: 49.74 ± 5.16 | proliferation: increase in cell numbers relative to control wells (control = 100) [8, 16]: 4.29 ± 5.16 | proliferation: increase in cell numbers relative to control wells (control = 100) [8, 11]: 0 | proliferation: increase in cell numbers relative to control wells (control = 100) [8, 12]: 0 | proliferation: increase in cell numbers relative to control wells (control = 100) [8, 13]: 0 | proliferation: increase in cell numbers relative to control wells (control = 100) [8, 14]: 0 | growth: increase in cell numbers relative to control wells (control = 100) ([9]; lipid concentration 5 μM): 42.9 ± 13.4 | growth: increase in cell numbers relative to control wells (control = 100) ([9]; lipid concentration 10 μM): 7.7 ± 2.3 | growth: increase in cell numbers relative to control wells (control = 100) ([9]; lipid concentration 15 μM): 0
